Experimental data reported in PMC8899470 (Frontiers in Pharmacology, 2022).
“And” between values parts separate entries of the source, which are not always exact repeats. Equal entries are not always repeated.

Assays:
PLpro of MERS-CoV = conditions: ref Cho et al., 2013; cited from earlier work
PLpro of SARS-CoV = conditions: ref Cho et al., 2013; cited from earlier work
SARS-CoV = conditions: Vero E6 cells; ref Lin et al., 2018; cited from earlier work
Vero E6 cells = conditions: cited from earlier work
SARS CoV-2 PLpro = SARS CoV-2 PLpro (Severe acute respiratory syndrome coronavirus 2, UniProt P0DTD1); experiment: biochemical; assay type: biochemical; conditions: for IC50: IC50, PLpro 0.3 µM, LKGGAMC substrate 40 µM, Tris-HCl pH 7.3, triplicate

SMILES: CCN(CC)C(=S)SSC(=S)N(CC)CC [Disulfiram]
- Inhibitory effect on PLpro (mode) (PLpro of MERS-CoV): competitive inhibitory effect
- Inhibitory effect on PLpro (mode) (PLpro of SARS-CoV): competitive inhibitory effect

SMILES: Cc1ccc(N)cc1C(=O)N[C@H](C)c1cccc2ccccc12 [GRL0617]
- Inhibition of SARS-CoV replication (SARS-CoV): inhibit the replication process
- Cytotoxicity (Vero E6 cells): no cytotoxicity

SMILES: Cc1ccc(NC2CCNCC2)cc1C(=O)N[C@H](C)c1cccc2[nH]c3ccccc3c12 [hit 1]
- IC50 (SARS CoV-2 PLpro): 2.4 ± 0.6 µM

SMILES: CCOC(=O)c1ccc(-c2cccc([C@@H](C)NC(=O)c3cc(NC4CNC4)ccc3C)c2)s1 [hit 2]
- IC50 (SARS CoV-2 PLpro): < 1 µM and 0.6 µM
- Inhibitory activity relative to positive control GRL0617 (SARS CoV-2 PLpro; ratio of IC50 values against PLpro): about 4 times

SMILES: Cc1ccc(NC2COC2)cc1C(=O)N[C@H](C)c1csc2ccccc12 [hit 3]
- IC50 (SARS CoV-2 PLpro): 2.1 ± 0.5 µM

SMILES: Cc1ccc(NC2CCN(C(F)(F)F)CC2)cc1C(=O)N[C@H](C)c1cccc2ccccc12 [hit 4]
- IC50 (SARS CoV-2 PLpro): < 1 µM and 0.8 µM
